Data reported in patent US12673032B2, “Exploiting estrogen receptor beta and TP53 interaction as a new therapeutic strategy for cancer” (Health Research, Inc., priority 2018, dated 2026).
pIC50: −log10 of the molar value. Read-outs that look alike come from different tables or passages of the source.

Experiments:
[1] = system: TP73 recruitment to the PUMA gene promoter; test: qChIP for BBC3 (PUMA) promoter occupancy by TP73; type: cell-based; settings: MDA-MB-231 cells; 5 μM for 24 hours
Method: FIGS. 17A-C. […] (A) Cells were treated with 5 μM TAM for 24 hours. After 24 hours, BBC3 promoter occupancy by TP73 was determined using qChIP in MDA-MB-231 cells. (B) SK-BR-3 cells were transfected with si-NS or si-ESR2 #2 for 48 hours and treated with or without 5 μM TAM for 24 hours. After 72 hours, expression of TP53 target genes (CDKN1A and BBC3) was determined using qRT-PCR. (C) SK-BR-3 cells were transfected with si-NS or si-TP73 for 48 hours and treated with or without 5 μM TAM for 24 hours. After 72 hours, expression of TP53 target genes (CDKN1A and BBC3) was determined using qRT-PCR. Error bars are represented as mean SD of three independent experiments. All ‘p’ values were determined by two tailed student t-test. qRT-PCR=Quantitative real time polymerase chain reaction. si-NS=non-specific siRNA; si-ESR2 #2=ESR2 specific siRNA; si-TP73=TP73 specific siRNA; VEH=Vehicle; TAM=4-Hydroxytamoxifen.
Chromatin immunoprecipitation (ChIP) assay. […] Immunoprecipitated chromatin samples were analyzed through real-time q-PCR as stated above. A region downstream of CDKN1A/p21 promoter sequence was used as endogenous control for the relative quantitation of immunoprecipitated chromatin fragments (Details of the primers are provided in Table 1). The promoter occupancy by transcription factor (s) of interest was analyzed as qRT-PCR.

[2] = system: MDA-MB-231 cells expressing mutant p53; test: Doxorubicin cell-killing IC50 in TNBC cells expressing mutant p53, with or without tamoxifen; type: cell-based; settings: for pIC50: Homo sapiens

Compound | recruitment of TP73 to the PUMA gene promoter (qChIP) [1] | pIC50 ([2]; MDA-MB-231, read-out: IC50 of doxorubicin with addition of tamoxifen) | pIC50 ([2]; read-out: IC50 (drug concentration required to kill 50% cells) of doxorubicin, MDA-MB-231 expressing mutant p53, doxorubicin alone) | Decrease of doxorubicin IC50 on addition of tamoxifen ([2]; MDA-MB-231 expressing mutant p53)
4-hydroxy tamoxifen | enhanced | – | – | –
COc1cccc2c1C(=O)c1c(O)c3c(c(O)c1C2=O)C[C@@](O)(C(=O)CO)C[C@@H]3O[C@H]1C[C@H](N)[C@H](O)[C@H](C)O1 [doxorubicin] | – | 6.82 | 5.98 | about 7 fold
